In patent US9855230B2 (ViiV Healthcare UK (No. 5) Limited, priority 2014, dated 2018):
Structures can show the parent of a compound that is named as a salt. Where two headings read alike, the source gives them in different places.

What was measured:
[1] = test system: recombinant NL4-3 virus (nef section replaced with Renilla luciferase gene) in MT-2 cells; test: whole plant or invertebrate; assay type: cell-based, HIV; conditions: NL43, luciferase activity in MT-2 cells infected 4-5 days with recombinant NL4-3 virus
Outline: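 Nef-deleted NL4-3 reporter virus carrying Renilla luciferase was used to infect MT-2 cells in the presence of serial compound dilutions. After 4-5 days of infection, antiviral activity was quantified from luciferase activity using a live-cell substrate.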

[2] = Compound cytotoxicity (CC50), XTT-based colorimetric assay; assay type: cell-based; conditions: human; uninfected MT2 cells, day 4, XTT assay
Outline: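 Run under the antiviral-assay protocol but without virus. Viability was read on day 4 and CC50 values were derived from the readout.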

SMILES	EC50 ([1]; read-out: Activity) [nM]	EC50 ([1]; read-out: EC50) [nM]	CC50 at 4 day [2] [nM]
Cc1ccccc1S(=O)(=O)NC(=O)N[C@@H](Cc1ccccc1)c1nccn1-c1ccc(OCc2ccccc2)cc1 [Example 30, (S)-N-((1-(1-(4-(benzyloxy)phenyl)-1H-imidazol-2-yl)-2-phenylethyl)carbamoyl)-2-methylbenzenesulfonamide]	100 to 1000	280	> 100000
COC(=O)Nc1ccc(-n2ccnc2[C@H](Cc2ccccc2)NC(=O)NS(=O)(=O)c2ccccc2OC)cc1 [Example 44, (S)-methyl (4-(2-(1-(3-((2-methoxyphenyl)sulfonyl)ureido)-2-phenylethyl)-1H-imidazol-1-yl)phenyl)carbamate]	< 100	–	> 100000
COc1ccc(-n2ccnc2[C@H](Cc2ccccc2)NC(=O)NS(=O)(=O)c2ccccc2F)cc1 [Example 58, (S)-2-fluoro-N-((1-(1-(4-methoxyphenyl)-1H-imidazol-2-yl)-2-phenylethyl)carbamoyl)benzenesulfonamide]	< 100	–	> 33000
Cc1ccccc1S(=O)(=O)NC(=O)N[C@H](Cc1cc(F)cc(F)c1)c1ncccc1-c1cncc(F)c1 [Example 103, (R)-N-((2-(3,5-difluorophenyl)-1-(5′-fluoro-[3,3′-bipyridin]-2-yl)ethyl)carbamoyl)-2-methylbenzenesulfonamide, 2 TFA]	> 1000	–	> 100000
Cc1ccccc1S(=O)(=O)NC(=O)N[C@@H](Cc1ccccc1)c1nccn1-c1ccc(Br)cc1 [Example 15, (S)-N-((1-(1-(4-bromophenyl)-1H-imidazol-2-yl)-2-phenylethyl)carbamoyl)-2-methylbenzenesulfonamide]	100 to 1000	190	> 100000
O=C(N[C@@H](Cc1cc(F)cc(F)c1)c1ncccc1-c1ccc2ccncc2c1)NS(=O)(=O)c1ccccc1Cl [Example 92, (S)-2-chloro-N-((2-(3,5-difluorophenyl)-1-(3-(isoquinolin-7-yl)pyridin-2-yl)ethyl)carbamoyl)benzenesulfonamide, 2 TFA]	100 to 1000	–	> 100000
Cc1ccccc1S(=O)(=O)NC(=O)N[C@@H](Cc1cc(F)cc(F)c1)c1ncccc1-c1cccc(C(=O)OC(C)(C)C)c1 [Example 130, (S)-tert-butyl 3-(2-(2-(3,5-difluorophenyl)-1-(3-(o-tolylsulfonyl)ureido)ethyl)pyridin-3-yl)benzoate, TFA]	> 1000	–	53000
Cc1ccccc1S(=O)(=O)NC(=O)N[C@@H](Cc1cc(F)cc(F)c1)c1ncccc1-c1ccc(F)c(C(N)=O)c1 [Example 97, (S)-5-(2-(2-(3,5-difluorophenyl)-1-(3-(o-tolylsulfonyl)ureido)ethyl)pyridin-3-yl)-2-fluorobenzamide, TFA]	100 to 1000	–	> 100000
COC(=O)Nc1ccc(-n2ccnc2[C@H](Cc2ccccc2)NC(=O)NS(=O)(=O)c2ccccc2C)cc1 [Example 2, (S)-methyl (4-(2-(2-phenyl-1-(3-(o-tolylsulfonyl)ureido)ethyl)-1H-imidazol-1-yl)phenyl)carbamate]	< 100	–	> 100000
COc1ccc(Cn2c(Br)cnc2[C@H](Cc2ccccc2)NC(=O)NS(=O)(=O)c2ccc(C)cc2)cc1 [Example 83, (S)-N-((1-(5-bromo-1-(4-methoxybenzyl)-1H-imidazol-2-yl)-2-phenylethyl)carbamoyl)-4-methylbenzenesulfonamide]	> 1000	–	> 33000
Cc1ccccc1S(=O)(=O)NC(=O)N[C@@H](Cc1ccccc1)c1nccn1-c1cnn(Cc2ccccc2)c1 [Example 81, (S)-N-((1-(1-(1-benzyl-1H-pyrazol-4-yl)-1H-imidazol-2-yl)-2-phenylethyl)carbamoyl)-2-methylbenzenesulfonamide]	100 to 1000	550	> 100000
CCCC(=O)Nc1cccc(-n2ccnc2[C@H](Cc2ccccc2)NC(=O)NS(=O)(=O)c2ccccc2C)c1 [Example 79, (S)-N-(3-(2-(2-phenyl-1-(3-(o-tolylsulfonyl)ureido)ethyl)-1H-imidazol-1-yl)phenyl)butyramide]	> 1000	–	> 100000
Cc1ccccc1S(=O)(=O)NC(=O)N[C@@H](Cc1ccccc1)c1nccn1-c1ccc(F)cc1 [Example 5, (S)-N-((1-(1-(4-fluorophenyl)-1H-imidazol-2-yl)-2-phenylethyl)carbamoyl)-2-methylbenzenesulfonamide]	100 to 1000	–	> 100000
CCOc1ccc(-n2ccnc2[C@H](Cc2ccccc2)NC(=O)NS(=O)(=O)c2cccc(Cl)c2Cl)cc1 [Example 57, (S)-2,3-dichloro-N-((1-(1-(4-ethoxyphenyl)-1H-imidazol-2-yl)-2-phenylethyl)carbamoyl)benzenesulfonamide]	< 100	30	> 100000
Cc1ccccc1S(=O)(=O)NC(=O)N[C@@H](Cc1ccccc1)c1nccn1-c1ccc2ccccc2c1 [Example 69, (S)-2-methyl-N-((1-(1-(naphthalen-2-yl)-1H-imidazol-2-yl)-2-phenylethyl)carbamoyl)benzenesulfonamide]	< 100	40	> 100000
COC(=O)Nc1ccc(-n2ccnc2[C@H](Cc2ccccc2)NC(=O)NS(=O)(=O)c2c(F)cccc2F)cc1 [Example 50, (S)-methyl (4-(2-(1-(3-((2,6-difluorophenyl)sulfonyl)ureido)-2-phenylethyl)-1H-imidazol-1-yl)phenyl)carbamate]	100 to 1000	–	> 100000
COc1ccc(Cn2ccnc2[C@H](Cc2ccccc2)NC(=O)NS(=O)(=O)c2ccccc2Cl)cc1 [Example 41, (S)-2-chloro-N-((1-(1-(4-methoxybenzyl)-1H-imidazol-2-yl)-2-phenylethyl)carbamoyl)benzenesulfonamide]	100 to 1000	–	> 33000
Cc1ccccc1S(=O)(=O)NC(=O)N[C@@H](Cc1cc(F)cc(F)c1)c1ncccc1-c1coc2ccccc12 [Example 127, (S)-N-((1-(3-(benzofuran-3-yl)pyridin-2-yl)-2-(3,5-difluorophenyl)ethyl)carbamoyl)-2-methylbenzenesulfonamide, TFA]	> 1000	–	72000
O=C(N[C@H](Cc1cc(F)cc(F)c1)c1ncccc1-c1c[nH]c2ccccc12)NS(=O)(=O)c1ccccc1Cl [Example 102, (R)-N-((1-(3-(1H-indol-3-yl)pyridin-2-yl)-2-(3,5-difluorophenyl)ethyl)carbamoyl)-2-chlorobenzenesulfonamide, 2 TFA]	> 1000	11500	> 33000
NC(=O)c1cc(-c2cccnc2[C@@H](Cc2cc(F)cc(F)c2)NC(=O)NS(=O)(=O)c2ccccc2Cl)ccc1F [Example 109, (R)-5-(2-(1-(3-((2-chlorophenyl)sulfonyl)ureido)-2-(3,5-difluorophenyl)ethyl)pyridin-3-yl)-2-fluorobenzamide, TFA]	> 1000	–	> 100000
Cc1ccccc1S(=O)(=O)NC(=O)N[C@@H](Cc1ccccc1)c1nccn1-c1ccc(N)cc1 [Example 42, (S)-N-((1-(1-(4-aminophenyl)-1H-imidazol-2-yl)-2-phenylethyl)carbamoyl)-2-methylbenzenesulfonamide]	< 100	40	> 100000
CC(C)(C)OC(=O)n1cc(-c2cccnc2[C@@H](Cc2cc(F)cc(F)c2)NC(=O)NS(=O)(=O)c2ccccc2Cl)c2ccccc21 [Example 101, (R)-tert-butyl 3-(2-(1-(3-((2-chlorophenyl)sulfonyl)ureido)-2-(3,5-difluorophenyl)ethyl)pyridin-3-yl)-1H-indole-1-carboxylate, TFA]	> 1000	–	36000
O=C(N[C@@H](Cc1ccccc1)c1nccn1-c1ccc2scnc2c1)NS(=O)(=O)c1ccccc1F [Example 71, (S)-N-((1-(1-(benzo[d]thiazol-5-yl)-1H-imidazol-2-yl)-2-phenylethyl)carbamoyl)-2-fluorobenzenesulfonamide]	100 to 1000	–	> 100000
Cc1ccc(-n2ccnc2[C@H](Cc2ccccc2)NC(=O)NS(=O)(=O)c2ccccc2C)cc1 [Example 13, (S)-2-methyl-N-((2-phenyl-1-(1-(p-tolyl)-1H-imidazol-2-yl)ethyl)carbamoyl)benzenesulfonamide]	< 100	–	> 100000
COC(=O)Nc1ccc(-c2cccnc2[C@H](Cc2cc(F)cc(F)c2)NC(=O)NS(=O)(=O)c2ccccc2Cl)cc1 [Example 91, (S)-methyl (4-(2-(1-(3-((2-chlorophenyl)sulfonyl)ureido)-2-(3,5-difluorophenyl)ethyl)pyridin-3-yl)phenyl)carbamate, TFA]	100 to 1000	–	> 100000
COc1ncccc1-c1cccnc1[C@H](Cc1cc(F)cc(F)c1)NC(=O)NS(=O)(=O)c1ccccc1C [Example 124, (S)-N-((2-(3,5-difluorophenyl)-1-(2′-methoxy-[3,3′-bipyridin]-2-yl)ethyl)carbamoyl)-2-methylbenzenesulfonamide, TFA]	> 1000	–	> 100000
COc1ccc(-n2ccnc2[C@H](Cc2ccccc2)NC(=O)NS(=O)(=O)c2ccccc2Cl)cc1 [Example 6, (S)-2-chloro-N-((1-(1-(4-methoxyphenyl)-1H-imidazol-2-yl)-2-phenylethyl)carbamoyl)benzenesulfonamide]	< 100	50	> 100000
Cc1cc(-c2cccnc2[C@@H](Cc2cc(F)cc(F)c2)NC(=O)NS(=O)(=O)c2ccccc2Cl)c(C)s1 [Example 104, (R)-2-chloro-N-((2-(3,5-difluorophenyl)-1-(3-(2,5-dimethylthiophen-3-yl)pyridin-2-yl)ethyl)carbamoyl)benzenesulfonamide, TFA]	> 1000	–	> 33000
